# Measurements from US20050118204A1, “Methods for controlling membrane permeability of a membrane permeable substance and screening methods for a membrane permeable substance” (priority 2003, published 2005).
# Columns and labels:
# dermal fibroblast [1] = assay: Enhancing effect of incorporation of Arg oligomer using substance positively changing membrane curvature (Test Example 5); type: cell-based; settings: Arg oligomer 1 μM, 10 minutes
# Description: The enhancing effect of incorporation of an Arg oligomer was evaluated by using skin-related cells (dermal fibroblast). Dermal fibroblast (Fibrocell, produced by Kurabo Industries, Ltd.) was seeded on a 6-well plate in an amount of 3×10^4 (cell/well) and cultivated with D-MEM Culture Medium (Dulbecco's modified Eagle medium, containing 10% serum, penicillin: 50 U/mL, streptomycin: 50 μg/mL) for 2 days. After cultivating for 2 days, the culture medium was removed from the wells of the 6-well plate, and D-MEM Culture Medium adjusted to contain 1,3-butanediol in a concentration of 2.5, 5 or 10 mM was added. After incubating for 5 minutes (37° C., 5% CO2), an Arg oligomer was added to the respective plates to a concentration of 1 μM and incubated for 10 minutes. After 10 minutes, the culture medium was removed by suction, and the wells were rinsed twice with an isotonic phosphate buffer solution. 500 μL of 1% Triton X-100 was added to the respective wells, followed by shaking at room temperature under light shielding for 1 hour, to lyse the cells. After thoroughly stirring by pipetting, the contents of the respective cells were transferred by 200 μL to a 96-well black cell, and fluorescence of 535 nm was measured under excitation with a spectrophotofluorometer (microplate reader, Wallac 1420 ARVOsx) at 485 nm.
# erythrocytes = assay: Influence of osmotic pressure on membrane permeation of Tat Peptide (48-60) into erythrocyte (Test Example 4); type: cell-based, sheep; settings: 10 μM, 37° C, 10 minutes; hypotonic versus isotonic phosphate buffer solution
# Description: 5 mL of preserved sheep blood (available from Japan Biomaterial Center Co., Ltd.) was placed in a tube, and after subjecting to centrifugal separation (4° C., 3,000 g, 3 min), the supernatant fluid was removed. 5 mL of physiological saline was added thereto, followed by lightly stirring, and then subjected to centrifugal separation (4° C., 3,000 g, 3 min). The same operation was repeated to obtain an erythrocyte pellet. 400 μL of an isotonic phosphate buffer solution was added to 400 μL of the erythrocyte pellet, and after stirring, the mixture was subjected to centrifugal separation (4° C., 3,000 g, 3 min), followed by removing the supernatant fluid. The same operation was repeated to obtain an erythrocyte pellet for evaluation. […] The solution in the Coulter Counter® is replaced by a hypotonic phosphate buffer solution (70% hypotonicity), and the diameter of the erythrocytes floating in the hypotonic phosphate buffer solution was measured in the same manner as in the case of the isotonic phosphate buffer solution. The diameter of the erythrocytes in a hypertonic phosphate buffer solution (130% hypertonicity) was also measured in the same manner. […]
# An erythrocyte pellet for evaluation was prepared in the same manner as in Test Example 1. […] The supernatant fluid was measured for fluorescence intensity with a microplate reader or a spectrophotofluorometer. […]
# [2] = Phase change of cubic phase of lecithin/sodium cholate system on adding sucrose; type: physicochemical; settings: cubic phase of 22.5% water, 50.4% phosphatidylcholine, 27.1% sodium cholate by weight at 25° C
# Description: The suppressing effect of incorporation of an Arg oligomer was investigated upon adding sucrose as a permeation suppressing substance, which was disclosed as a substance negatively changing the membrane curvature in Biochimica et Biophysica Acta (BBA)—Biomembranes, vol. 1285, Issue 1, p. 109-122 (1996). The inventors confirmed that a cubic phase of lecithin/sodium cholate system was constituted by utilizing lecithin (phosphatidylcholine) as a major constitutional component of the phospholipid constituting a cell membrane, and the cubic phase was changed to a hexagonal phase by adding sucrose thereto (as described in Biochim. Biophys. Acta., vol. 125, p. 563-580 (1966)). The phase change was determined by a change of the shape observed by a polarization microscope, the presence or absence of polarization with a polarizing film (a lamellar phase and a hexagonal phase were viewed brightly owing to the polarization thereof, but a cubic phase is viewed darkly), or a difference in spectrum patterns obtained by small angle X-ray scattering. The cubic phase was formed by mixing 22.5% by weight of water, 50.4% by weight of phosphatidylcholine and 27.1% by weight of sodium cholate at 25° C. When sucrose was added to the cubic phase in a proportion of 3.5% by weight or more, the cubic phase was changed to a lamellar phase. […]
# dermal fibroblast [3] = assay: Suppressing effect of incorporation of Arg oligomer using substance negatively changing membrane curvature (Test Example 6); type: cell-based; settings: Arg oligomer 1 μM, 10 minutes
# Description: The suppressing effect of incorporation of an Arg oligomer was evaluated by using skin-related cells (dermal fibroblast). Dermal fibroblast (Fibrocell, produced by Kurabo Industries, Ltd.) was seeded on a 6-well plate in an amount of 3×10^4 (cell/well) and cultivated with D-MEM Culture Medium (Dulbecco's modified Eagle medium, containing 10% serum, penicillin: 50 U/mL, streptomycin: 50 μg/mL) for 2 days. After cultivating for 2 days, the culture medium was removed from the wells of the 6-well plate, and D-MEM Culture Medium adjusted to contain sucrose in a concentration of 2.5, 5 or 10 mM was added. After incubating for 5 minutes (37° C., 5% CO2), an Arg oligomer was added to the respective plates to a concentration of 1 μM and incubated for 10 minutes. After lapsing 10 minutes, the culture medium was removed by suction, and the contents of the wells were rinsed twice with an isotonic phosphate buffer solution. 500 μL of 1% Triton X-100 was added to the respective wells, followed by shaking at room temperature under light shielding for 1 hour, to lyse the cells. After thoroughly stirring by pipetting, the contents of the respective wells were transferred by 200 μL to a 96-well black cell, and fluorescence of 535 nm was measured under excitation with a spectrophotofluorometer (microplate reader, Wallac 1420 ARVOsx) at 485 nm. The addition of sucrose decreased the fluorescence intensity depending upon the concentration of sucrose by 8% with a sucrose concentration of 2.5 mM, 19% with 5 mM and 37% with 10 mM, in comparison to the case where no sucrose was added. According to the aforementioned experimentation, sucrose is a compound changing the membrane curvature to concave, and it is considered that the change of the membrane suppresses the membrane permeability of the Arg oligomer.
compound,measurement,setting,value
"CC(O)CCO (centres unmarked) [1,3-butanediol]",increase of fluorescence intensity (Arg oligomer incorporation) versus no addition,dermal fibroblast [1]; 2.5 mM of added substance,about 15%
rhodamine-GABA-GRKKRRQRRRPPQC-NH2.8CF3COOH [Tat Peptide],"amount of the Tat Peptide which penetrated into the erythrocytes on lowering the osmotic pressure, by fluorescence intensity",erythrocytes,increased
OC[C@H]1O[C@@](CO)(O[C@H]2O[C@H](CO)[C@@H](O)[C@H](O)[C@H]2O)[C@@H](O)[C@@H]1O [sucrose],proportion added at which the cubic phase was changed to a lamellar phase,[2],≥ 3.5 % by weight
same,decrease of fluorescence intensity (Arg oligomer incorporation) versus no sucrose,dermal fibroblast [3]; sucrose 2.5 mM,8%
same,decrease of fluorescence intensity (Arg oligomer incorporation) versus no sucrose,dermal fibroblast [3]; sucrose 5 mM,19%
same,decrease of fluorescence intensity (Arg oligomer incorporation) versus no sucrose,dermal fibroblast [3]; sucrose 10 mM,37%
N#C[S-].[Na+] [sodium thiocyanate],increase of fluorescence intensity (Arg oligomer incorporation) versus no addition,dermal fibroblast [1]; 2.5 mM of added substance,about 10%
same,increase of fluorescence intensity (Arg oligomer incorporation) versus no addition,dermal fibroblast [1]; 10 mM of added substance,about 15%
